Laboratory results as given in ChEMBL document CHEMBL4507318, “Data for DCP probe BAY-985” (2021).

What was measured:
[1] = target: Ribosomal protein S6 kinase alpha-3 (Homo sapiens) (UniProt P51812)
[2] = target: Mitogen-activated protein kinase kinase kinase 13 (Homo sapiens) (UniProt O43283)
[3] = target: Muscarinic acetylcholine receptor M3 (Homo sapiens) (UniProt P20309); conditions: Compound concentration 10.0 uM
[4] = target: Casein kinase I isoform gamma-3 (Homo sapiens) (UniProt Q9Y6M4)
Chain of Casein kinase I isoform gamma-3 (Homo sapiens) (Q9Y6M4 whole entry, looked up, canonical isoform): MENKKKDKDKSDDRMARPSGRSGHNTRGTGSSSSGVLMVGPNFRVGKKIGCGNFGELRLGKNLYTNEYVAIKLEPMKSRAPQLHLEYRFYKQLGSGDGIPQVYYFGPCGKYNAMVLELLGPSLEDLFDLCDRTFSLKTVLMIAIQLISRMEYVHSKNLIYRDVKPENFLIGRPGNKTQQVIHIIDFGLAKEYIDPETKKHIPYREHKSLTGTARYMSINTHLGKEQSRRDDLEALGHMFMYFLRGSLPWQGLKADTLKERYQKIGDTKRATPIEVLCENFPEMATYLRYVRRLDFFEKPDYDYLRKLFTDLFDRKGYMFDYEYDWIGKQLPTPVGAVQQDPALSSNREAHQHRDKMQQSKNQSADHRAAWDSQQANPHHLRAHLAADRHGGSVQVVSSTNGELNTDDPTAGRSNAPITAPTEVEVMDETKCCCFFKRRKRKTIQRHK

[5] = target: MAP kinase-interacting serine/threonine-protein kinase 1 (Homo sapiens) (UniProt Q9BUB5)
Chain of MAP kinase-interacting serine/threonine-protein kinase 1 (Homo sapiens) (Q9BUB5 whole entry, looked up): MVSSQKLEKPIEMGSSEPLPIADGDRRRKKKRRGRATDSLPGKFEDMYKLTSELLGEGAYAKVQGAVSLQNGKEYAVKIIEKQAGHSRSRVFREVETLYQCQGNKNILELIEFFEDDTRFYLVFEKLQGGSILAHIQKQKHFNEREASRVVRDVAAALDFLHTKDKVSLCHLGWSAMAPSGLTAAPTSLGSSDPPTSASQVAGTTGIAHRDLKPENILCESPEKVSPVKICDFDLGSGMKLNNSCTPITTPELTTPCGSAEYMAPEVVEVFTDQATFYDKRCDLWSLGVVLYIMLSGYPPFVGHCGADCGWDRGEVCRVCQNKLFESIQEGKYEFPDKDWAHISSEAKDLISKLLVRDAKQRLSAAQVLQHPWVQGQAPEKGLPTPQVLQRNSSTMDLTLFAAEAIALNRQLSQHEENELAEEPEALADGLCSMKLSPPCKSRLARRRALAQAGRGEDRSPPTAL

[6] = target: Tyrosine-protein kinase Yes (Homo sapiens) (UniProt P07947)
Chain of Tyrosine-protein kinase Yes (Homo sapiens) (P07947 2-543 limits assumed): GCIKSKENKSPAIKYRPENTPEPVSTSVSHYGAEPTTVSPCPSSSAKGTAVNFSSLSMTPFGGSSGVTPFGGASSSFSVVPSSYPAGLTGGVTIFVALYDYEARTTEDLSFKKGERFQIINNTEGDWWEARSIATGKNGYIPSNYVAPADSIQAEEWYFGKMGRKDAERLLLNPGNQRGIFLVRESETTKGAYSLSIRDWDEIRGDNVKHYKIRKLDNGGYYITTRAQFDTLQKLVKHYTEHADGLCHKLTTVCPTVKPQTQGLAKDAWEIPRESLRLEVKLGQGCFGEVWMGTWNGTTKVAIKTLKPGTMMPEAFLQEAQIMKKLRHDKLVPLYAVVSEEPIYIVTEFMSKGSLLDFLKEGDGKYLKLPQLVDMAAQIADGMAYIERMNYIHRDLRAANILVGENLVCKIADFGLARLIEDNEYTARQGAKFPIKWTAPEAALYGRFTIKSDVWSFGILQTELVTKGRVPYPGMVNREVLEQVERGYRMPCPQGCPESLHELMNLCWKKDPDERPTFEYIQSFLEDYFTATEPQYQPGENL

[7] = target: Serine/threonine-protein kinase haspin (Homo sapiens) (UniProt Q8TF76)
[8] = target: SRSF protein kinase 2 (Homo sapiens) (UniProt P78362)
[9] = target: Serine/threonine-protein kinase MRCK alpha (Homo sapiens) (UniProt Q5VT25)
[10] = target: Beta-adrenergic receptor kinase 1 (Homo sapiens) (UniProt P25098)
Chain of Beta-adrenergic receptor kinase 1 (Homo sapiens) (P25098 whole entry): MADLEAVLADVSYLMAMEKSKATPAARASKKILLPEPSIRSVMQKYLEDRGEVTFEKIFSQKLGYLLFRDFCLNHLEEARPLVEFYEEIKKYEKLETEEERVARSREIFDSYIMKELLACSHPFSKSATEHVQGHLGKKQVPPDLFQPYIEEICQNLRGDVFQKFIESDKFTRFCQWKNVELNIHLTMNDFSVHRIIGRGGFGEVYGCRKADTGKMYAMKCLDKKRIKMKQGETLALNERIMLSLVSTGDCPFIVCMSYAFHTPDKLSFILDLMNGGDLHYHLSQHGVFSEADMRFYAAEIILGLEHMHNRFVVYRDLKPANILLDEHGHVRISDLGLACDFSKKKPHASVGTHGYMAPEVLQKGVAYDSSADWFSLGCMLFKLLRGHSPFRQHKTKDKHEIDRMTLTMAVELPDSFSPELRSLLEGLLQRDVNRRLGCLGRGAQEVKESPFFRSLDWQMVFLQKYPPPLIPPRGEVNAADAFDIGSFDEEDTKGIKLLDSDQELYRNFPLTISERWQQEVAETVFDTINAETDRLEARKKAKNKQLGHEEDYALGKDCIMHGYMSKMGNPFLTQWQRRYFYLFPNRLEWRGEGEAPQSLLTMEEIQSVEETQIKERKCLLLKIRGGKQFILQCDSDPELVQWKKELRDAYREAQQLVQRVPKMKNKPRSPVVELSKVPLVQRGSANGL

[11] = target: Calcium/calmodulin-dependent protein kinase type 1D (Homo sapiens) (UniProt Q8IU85)
Chain of Calcium/calmodulin-dependent protein kinase type 1D (Homo sapiens) (Q8IU85 whole entry, looked up): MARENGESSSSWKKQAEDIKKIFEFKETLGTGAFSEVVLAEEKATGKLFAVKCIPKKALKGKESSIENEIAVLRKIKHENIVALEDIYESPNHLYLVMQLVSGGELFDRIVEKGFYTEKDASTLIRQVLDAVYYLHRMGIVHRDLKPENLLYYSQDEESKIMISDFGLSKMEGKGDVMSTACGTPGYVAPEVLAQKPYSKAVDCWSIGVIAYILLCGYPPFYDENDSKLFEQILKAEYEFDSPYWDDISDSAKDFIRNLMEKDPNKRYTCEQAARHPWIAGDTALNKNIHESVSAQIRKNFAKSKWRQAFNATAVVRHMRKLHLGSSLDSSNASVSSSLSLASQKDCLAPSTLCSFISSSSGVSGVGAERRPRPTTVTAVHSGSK

[12] = target: Myosin-IIIb (Homo sapiens) (UniProt Q8WXR4)
[13] = target: Cyclin-dependent kinase 4 (Homo sapiens) (UniProt P11802)
[14] = target: Mast/stem cell growth factor receptor Kit (Homo sapiens) (UniProt P10721)
[15] = target: Tyrosine-protein kinase HCK (Homo sapiens) (UniProt P08631)
[16] = target: Mitogen-activated protein kinase kinase kinase kinase 5 (Homo sapiens) (UniProt Q9Y4K4)
[17] = target: Phosphorylase b kinase gamma catalytic chain, skeletal muscle/heart isoform (Homo sapiens) (UniProt Q16816)
[18] = system: Phosphatidylinositol 4,5-bisphosphate 3-kinase catalytic subunit alpha isoform (Homo sapiens), P42336 [H1047L]
[19] = target: Cyclin-dependent kinase 14 (Homo sapiens) (UniProt O94921)
[20] = target: Activated CDC42 kinase 1 (Homo sapiens) (UniProt Q07912)
[21] = target: Tyrosine-protein kinase FRK (Homo sapiens) (UniProt P42685)
[22] = target: Ephrin type-A receptor 7 (Homo sapiens) (UniProt Q15375)
[23] = system: Phosphatidylinositol 4,5-bisphosphate 3-kinase catalytic subunit alpha isoform (Homo sapiens), P42336 [E545K]
[24] = target: Death-associated protein kinase 1 (Homo sapiens) (UniProt P53355)
[25] = target: Mitogen-activated protein kinase kinase kinase 6 (Homo sapiens) (UniProt O95382)
[26] = target: SRSF protein kinase 1 (Homo sapiens) (UniProt Q96SB4)
[27] = target: Uncharacterized serine/threonine-protein kinase SBK3 (Homo sapiens) (UniProt P0C264)
[28] = target: Tyrosine-protein kinase Fer (Homo sapiens) (UniProt P16591)
[29] = target: Serine/threonine-protein kinase PAK 6 (Homo sapiens) (UniProt Q9NQU5)
[30] = target: Histamine H3 receptor (Homo sapiens) (UniProt Q9Y5N1); conditions: Compound concentration 10.0 uM
[31] = target: Dual specificity testis-specific protein kinase 1 (Homo sapiens) (UniProt Q15569)
[32] = target: Ribosomal protein S6 kinase alpha-5 (Homo sapiens) (UniProt O75582)
Chain of Ribosomal protein S6 kinase alpha-5 (Homo sapiens) (O75582 whole entry, looked up): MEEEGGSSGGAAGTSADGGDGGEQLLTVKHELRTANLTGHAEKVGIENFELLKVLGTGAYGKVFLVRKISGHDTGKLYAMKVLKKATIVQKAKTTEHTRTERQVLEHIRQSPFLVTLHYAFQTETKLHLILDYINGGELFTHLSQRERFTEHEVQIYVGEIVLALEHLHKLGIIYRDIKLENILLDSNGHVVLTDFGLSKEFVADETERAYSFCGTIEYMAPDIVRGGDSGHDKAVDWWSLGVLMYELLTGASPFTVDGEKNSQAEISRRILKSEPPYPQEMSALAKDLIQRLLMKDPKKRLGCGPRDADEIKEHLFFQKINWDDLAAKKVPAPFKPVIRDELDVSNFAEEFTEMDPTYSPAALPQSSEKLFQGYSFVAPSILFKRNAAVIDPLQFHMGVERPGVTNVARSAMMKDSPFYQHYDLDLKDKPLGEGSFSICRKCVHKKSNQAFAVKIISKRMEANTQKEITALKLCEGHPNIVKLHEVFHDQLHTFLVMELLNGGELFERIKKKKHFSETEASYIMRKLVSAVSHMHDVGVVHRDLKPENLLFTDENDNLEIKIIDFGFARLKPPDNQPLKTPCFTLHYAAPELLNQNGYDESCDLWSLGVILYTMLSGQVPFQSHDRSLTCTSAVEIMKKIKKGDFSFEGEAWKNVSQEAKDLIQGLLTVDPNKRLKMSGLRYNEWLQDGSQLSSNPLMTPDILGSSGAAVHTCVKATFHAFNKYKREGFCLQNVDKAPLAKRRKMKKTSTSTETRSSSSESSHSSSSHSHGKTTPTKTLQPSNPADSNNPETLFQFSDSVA

[33] = target: Non-receptor tyrosine-protein kinase TYK2 (Homo sapiens) (UniProt P29597)
[34] = target: SNF-related serine/threonine-protein kinase (Homo sapiens) (UniProt Q9NRH2)
[35] = target: Serine/threonine-protein kinase ICK (Homo sapiens) (UniProt Q9UPZ9)
[36] = target: Serine/threonine-protein kinase WNK1 (Homo sapiens) (UniProt Q9H4A3)
[37] = target: D(4) dopamine receptor (Homo sapiens) (UniProt P21917); conditions: Compound concentration 10.0 uM
[38] = target: Serine/threonine-protein kinase Chk2 (Homo sapiens) (UniProt O96017)
[39] = target: Dual specificity protein kinase CLK2 (Homo sapiens) (UniProt P49760)
[40] = target: Phosphatidylinositol 4-kinase beta (Homo sapiens) (UniProt Q9UBF8)
[41] = target: Dual specificity mitogen-activated protein kinase kinase 4 (Homo sapiens) (UniProt P45985)
[42] = system: Mast/stem cell growth factor receptor Kit (Homo sapiens), P10721 [V559D,T670I]
[43] = target: Mitogen-activated protein kinase kinase kinase kinase 4 (Homo sapiens) (UniProt O95819)
[44] = system: Hepatocyte growth factor receptor (Homo sapiens), P08581 [Y1235D]
[45] = target: Inhibitor of nuclear factor kappa-B kinase subunit beta (Homo sapiens) (UniProt O14920)
[46] = Compound concentration 1000.0 nM
[47] = Compound concentration 100.0 nM

Chain of Ribosomal protein S6 kinase alpha-3 (Homo sapiens) (P51812 whole entry): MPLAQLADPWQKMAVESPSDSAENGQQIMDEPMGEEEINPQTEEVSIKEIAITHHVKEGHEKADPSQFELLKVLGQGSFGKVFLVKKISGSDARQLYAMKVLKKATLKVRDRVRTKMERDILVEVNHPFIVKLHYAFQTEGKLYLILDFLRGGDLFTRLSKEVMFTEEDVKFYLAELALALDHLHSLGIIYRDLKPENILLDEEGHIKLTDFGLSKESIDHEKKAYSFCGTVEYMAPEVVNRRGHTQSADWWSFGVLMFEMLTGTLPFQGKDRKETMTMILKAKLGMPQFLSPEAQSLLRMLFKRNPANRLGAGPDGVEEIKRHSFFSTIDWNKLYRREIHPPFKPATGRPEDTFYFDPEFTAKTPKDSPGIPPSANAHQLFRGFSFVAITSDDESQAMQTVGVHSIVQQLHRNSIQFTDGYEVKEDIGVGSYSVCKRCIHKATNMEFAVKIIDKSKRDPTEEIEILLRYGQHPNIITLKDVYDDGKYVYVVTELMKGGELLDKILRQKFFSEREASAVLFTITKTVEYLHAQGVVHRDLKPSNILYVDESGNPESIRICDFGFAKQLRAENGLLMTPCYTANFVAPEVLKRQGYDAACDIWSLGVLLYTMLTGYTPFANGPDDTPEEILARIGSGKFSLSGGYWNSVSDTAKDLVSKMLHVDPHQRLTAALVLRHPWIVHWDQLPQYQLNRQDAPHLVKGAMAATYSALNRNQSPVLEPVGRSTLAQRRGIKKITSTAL
Chain of Mitogen-activated protein kinase kinase kinase 13 (Homo sapiens) (O43283 whole entry): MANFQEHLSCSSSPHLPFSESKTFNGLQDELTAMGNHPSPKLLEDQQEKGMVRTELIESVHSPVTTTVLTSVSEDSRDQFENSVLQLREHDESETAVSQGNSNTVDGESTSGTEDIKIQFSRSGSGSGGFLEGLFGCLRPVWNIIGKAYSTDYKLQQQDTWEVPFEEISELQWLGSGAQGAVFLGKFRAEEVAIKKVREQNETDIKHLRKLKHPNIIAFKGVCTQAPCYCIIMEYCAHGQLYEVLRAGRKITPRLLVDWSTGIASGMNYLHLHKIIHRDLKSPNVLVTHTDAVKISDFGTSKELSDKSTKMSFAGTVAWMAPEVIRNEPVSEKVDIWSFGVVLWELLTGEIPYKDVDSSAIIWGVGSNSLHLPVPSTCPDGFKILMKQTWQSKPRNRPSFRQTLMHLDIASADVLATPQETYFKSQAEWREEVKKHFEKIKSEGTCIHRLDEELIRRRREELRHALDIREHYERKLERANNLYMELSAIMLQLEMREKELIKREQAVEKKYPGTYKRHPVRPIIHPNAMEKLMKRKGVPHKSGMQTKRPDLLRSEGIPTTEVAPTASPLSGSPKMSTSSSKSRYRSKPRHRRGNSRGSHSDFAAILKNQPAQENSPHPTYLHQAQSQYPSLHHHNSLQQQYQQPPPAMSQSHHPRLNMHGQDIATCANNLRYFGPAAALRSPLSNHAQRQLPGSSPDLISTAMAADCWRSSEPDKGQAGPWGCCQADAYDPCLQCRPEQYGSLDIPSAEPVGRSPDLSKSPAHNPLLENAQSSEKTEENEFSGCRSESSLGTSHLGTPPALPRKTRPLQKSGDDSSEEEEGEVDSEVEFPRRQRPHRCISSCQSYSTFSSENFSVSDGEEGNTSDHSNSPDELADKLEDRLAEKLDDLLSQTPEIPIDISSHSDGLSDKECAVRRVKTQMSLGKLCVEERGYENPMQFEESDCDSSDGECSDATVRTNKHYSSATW

Question: What does the source list for `CN(C)c1ncnc(-c2ccc3nc(Nc4cc(CN5CCN(C(=O)CC(F)(F)F)CC5)ccn4)[nH]c3c2)c1Cl` [BAY-440]?
Answer: residual activity [1, 46]: 87%; residual activity [2, 46]: 86%; inhibition [3]: 23.9%; residual activity [4, 46]: 100%; residual activity [5, 46]: 62%; residual activity [6, 46]: 76%; residual activity [7, 46]: 100%; residual activity [8, 46]: 76%; residual activity [9, 46]: 100%; residual activity [10, 46]: 57%; residual activity [11, 46]: 100%; residual activity [12, 46]: 100%; residual activity [13, 46]: 69%; residual activity [14, 46]: 96%; residual activity [15, 46]: 80%; residual activity [16, 46]: 100%; residual activity [17, 46]: 96%; residual activity [18, 46]: 61%; residual activity [19, 46]: 100%; residual activity [20, 46]: 96%; residual activity [21, 46]: 85%; residual activity [22, 46]: 100%; residual activity [23, 46]: 76%; residual activity [24, 46]: 100%; residual activity [25, 46]: 87%; residual activity [26, 46]: 47%; residual activity [27, 46]: 100%; residual activity [28, 46]: 100%; residual activity [29, 46]: 100%; inhibition [30]: 4.68%; residual activity [31, 46]: 78%; residual activity [32, 46]: 100%; residual activity [33, 46]: 51%; residual activity [34, 46]: 100%; residual activity [35, 46]: 100%; residual activity [36, 46]: 86%; inhibition [37]: 7.18%; residual activity [38, 46]: 100%; residual activity [39, 46]: 90%; residual activity [40, 46]: 100%; residual activity [41, 46]: 92%; residual activity [42, 46]: 100%; residual activity [43, 46]: 100%; residual activity [44, 46]: 68%; residual activity [45, 46]: 80%

Question: With `C[C@H](c1ccnc(Nc2nc3ccc(-c4cc(N(C)C)ncn4)cc3[nH]2)c1)N1CCN(C(=O)CC(F)(F)F)CC1` [BAY-985] as the molecule, how does the residual activity [1, 47] read?
Answer: 100%

Question: And the residual activity [2, 47]?
Answer: 100%

Question: And the inhibition [3]?
Answer: -8.4%

Question: What about the residual activity [4, 47] of the same molecule?
Answer: 100%

Question: What about the residual activity [5, 47] of the same molecule?
Answer: 92%

Question: And the residual activity [6, 47]?
Answer: 92%

Question: And the residual activity [7, 47]?
Answer: 100%

Question: And the residual activity [8, 47]?
Answer: 100%

Question: And the residual activity [9, 47]?
Answer: 99%

Question: And the residual activity [10, 47]?
Answer: 100%

Question: And the residual activity [11, 47]?
Answer: 95%

Question: What about the residual activity [12, 47] of the same molecule?
Answer: 100%

Question: And the residual activity [13, 47]?
Answer: 100%

Question: What about the residual activity [14, 47] of the same molecule?
Answer: 100%

Question: What about the residual activity [15, 47] of the same molecule?
Answer: 91%

Question: And the residual activity [16, 47]?
Answer: 96%

Question: And the residual activity [17, 47]?
Answer: 100%

Question: What about the residual activity [18, 47] of the same molecule?
Answer: 100%

Question: What about the residual activity [19, 47] of the same molecule?
Answer: 100%

Question: What about the residual activity [20, 47] of the same molecule?
Answer: 100%

Question: What about the residual activity [21, 47] of the same molecule?
Answer: 92%

Question: What about the residual activity [22, 47] of the same molecule?
Answer: 100%

Question: What about the residual activity [23, 47] of the same molecule?
Answer: 100%

Question: And the residual activity [24, 47]?
Answer: 93%

Question: And the residual activity [25, 47]?
Answer: 100%

Question: What about the residual activity [26, 47] of the same molecule?
Answer: 85%

Question: And the residual activity [27, 47]?
Answer: 100%

Question: And the residual activity [28, 47]?
Answer: 100%

Question: And the residual activity [29, 47]?
Answer: 100%

Question: And the inhibition [30]?
Answer: -3.83%

Question: What about the residual activity [31, 47] of the same molecule?
Answer: 98%

Question: What about the residual activity [32, 47] of the same molecule?
Answer: 88%

Question: And the residual activity [33, 47]?
Answer: 100%

Question: And the residual activity [34, 47]?
Answer: 100%

Question: And the residual activity [35, 47]?
Answer: 88%

Question: And the residual activity [36, 47]?
Answer: 100%

Question: And the inhibition [37]?
Answer: 8.17%

Question: And the residual activity [38, 47]?
Answer: 84%

Question: What about the residual activity [39, 47] of the same molecule?
Answer: 65%

Question: And the residual activity [40, 47]?
Answer: 100%

Question: What about the residual activity [41, 47] of the same molecule?
Answer: 100%

Question: What about the residual activity [42, 47] of the same molecule?
Answer: 99%

Question: And the residual activity [43, 47]?
Answer: 91%

Question: What about the residual activity [44, 47] of the same molecule?
Answer: 100%

Question: What about the residual activity [45, 47] of the same molecule?
Answer: 99%
